Key:
[1] = system: KEAP1-mutant NSCLC cells; test: Colony formation in soft agar, KEAP1-mutant NSCLC cells; type: cell-based, human; conditions: 5 μM
Text: Based on its in situ activity (FIG. 6D and FIG. 12A, 12G) and selectivity (FIGS. 6A, 6B), BPK-29 was chosen for additional biological studies. […] Exogenous expression of […] the growth inhibition caused by BPK-29.

[2] = system: CRY1, DEPDC1, and CPLX2 expression in KEAP1-mutant NSCLC cells (H460, H2122); test: Gene expression changes (RNA sequencing, qPCR) in KEAP1-mutant NSCLC cells; type: cell-based, human; conditions: 12 h; for gene expression changes (CRY1, DEPDC1, CPLX2): KEAP1-mutant NSCLC cells
Procedure: FIG. 13A-FIG. 13E illustrate characterization of NR0B1 ligands in Keap1-mutant NSCLC cells. […] Top: Heat map depicting changes in gene expression between H460 cells expressing shNRF2, shNR0B1 or a control (shGFP) and those treated with vehicle (DMSO), BPK-29 or BPK-9 (30 μM, 12 h). Expression for each condition was first normalized to appropriate controls (shGFP or DMSO) and then normalized by row. Bottom: Overlap between gene sets regulated in BPK-29-treated vs shNR0B1 H460 cells. Gene set enrichment analysis (GSEA) was applied to all genes that were differentially expressed between shNR0B1-H460 cells and shGFP-H460 cells or between H460 cells treated with BPK-29 or DMSO. Genes were ranked based on their FDR. The FDR q-value was computed by GSEA on the C2.all collection and a cut off of FDR<0.05 was required for a gene set to be considered enriched. […] H460 (left) or H2009 (right) cells were treated with vehicle, BPK-29, or BPK-9 (25 μM, 12 h). Gene expression changes for CRY1, DEPDC1, and CPLX2 were determined by qPCR and data represents mean values+SD (n=4-10). […] Cells were treated with the vehicle, BPK-29, or BPK-9 (30 μM, 12 h). Gene expression changes for Cry1, DEPDC1, and CPLX2 were determined by qPCR and data represents mean values+SD (n=4-6). […] H460 cells were treated with vehicle or BPK-29 or BPK-9 at the indicated concentrations for 9 h. Protein expression was analyzed by immunoblotting. […] Top: H460 cells were treated with cycloheximide (100 μg/mL) for the indicated time points and NR0B1 protein content assessed by immunoblotting. […] NR0B1 protein content was determined following cycloheximide treatment and data were fit into a one-phase exponential decay model. […]
RNA was isolated by RNeasy Kit (Qiagen) and digested with DNase (Qiagen) from n=3 samples per condition (cells expressing shGFP, shNRF2_1, shNR0B1_1 or shSNW1_1 or treated with DMSO, 30 μM BPK-29 or 30 μM BPK-9). RNA integrity (RIN) numbers were determined using the Agilent TapeStation prior to library preparation. mRNA-seq libraries were prepared using the TruSeq RNA library preparation kit (version 2) according to the manufacturer's instructions (Illumina). Libraries were then quantified, pooled, and sequenced by single-end 50 base pairs using the Illumina HiSeq 2500 platform at the Salk Next-Generation Sequencing Core. […] Libraries were sequenced at an average depth of 15 million reads per sample.
The spliced read aligner STAR (Dobin et al., 2013) was used to align sequencing reads to the human hg19 genome. Gene-level read counts were obtained based on UCSC hg19 gene annotation. DESeq2 (Love et al., 2014) was used to calculate differential gene expression based on uniquely aligned reads, and p-values were adjusted for multiple hypothesis testing with the Benjamini-Hochberg method.

Row | SMILES | colony formation in soft agar [1] | gene expression changes (CRY1, DEPDC1, CPLX2) ([2]; 30 μM) | expression of representative genes (CRY1, DEPDC1, CPLX2) by qPCR ([2]; KEAP1-mutant H460 cells, 25 μM) | expression of representative genes (Cry1, DEPDC1, CPLX2) by qPCR ([2]; KEAP1-mutant H2122 cells, 30 μM)
1 | O=C(c1ccc(N2CCOCC2)cc1)N1CCC(CN(C(=O)CCl)c2cncnc2)CC1 [BPK-9, 2-chloro-N-((1-(4-morpholinobenzoyl)piperidin-4-yl)methyl)-N-(pyrimidin-5-yl)acetamide] | much less of an effect | not observed |  | 
2 | O=C(c1ccc(N2CCOCC2)cc1)N1CCCC(N(Cc2ccccc2)C(=O)CCl)CC1 (stereo not drawn) [BPK-29, N-benzyl-2-chloro-N-(1-(4-morpholinobenzoyl)azepan-4-yl)acetamide] | blocked colony formation | reductions in CRY1, DEPDC1, and CPLX2 | alters the expression | alters the expression
